Assay results: US20030186345A1, “Macromolecular enzyme substrates” (priority 2003, published 2003)
*1 amine or outer side, *2 acyl side, *3 side chain or, on linkers, in order; H or OH if unused. Where a SMILES comes first, the peptide text is derived from it. [ ]: non-standard residue; d: D form. The star is where a group is joined. pNA = O=[N+]([O-])c1ccc(N*)cc1; Suc = O=C(CCC(=O)[*:2])[*:1]

Legend:
thrombin [1] = target: T1, thrombin (Homo sapiens, UniProt P00734); experiment: Cleavage of pNA substrates by thrombin, kinetic parameters; type: biochemical; set-up: Human thrombin, bovine chymotrypsin; purchased Sigma Chemical Co. (St. Louis, Mo.); settings: 37° C.; means of triplicates
Method: Measurements of protease activity at 25° C. or 37° C. were performed and analyzed as previously described (Hortin and Trimpe, J. Biol. Chem. 266:6866-6871, 1991) with a Cobas FARA analyzer (Roche Diagnostic Systems, Somerville, N.J.). […] Kinetic parameters were calculated from initial rates of reactions using Lineweaver-Burke plots. […] These reactions were performed in 100 mM tris(hydroxymethyl)-aminomethane pH 7.8 with 10 mm CaCl2. Substrate concentration were determined by absorbance at 342 nm, using an extinction coefficient of 8,260 mol^−1 and several concentrations were confirmed by absorbance measures at 405 or 410 nm after substrate hydrolysis, with extinction coefficient of 9,900 or 8,600 mol^−1, respectively, for the p-nitroaniline product (Lottenberg and Jackson, Biochim. Biophys. Acta 742:558-564, 1983). Molar concentration of chymotrypsin was determined by active site titration with p-nitrophenyl guanidinobenzoate and thrombin concentrations by titration with highly purified hirudin.

thrombin [2] = target: T1, thrombin; experiment: Inhibition of substrate cleavage by α2-macroglobulin, thrombin; type: biochemical; set-up: Human thrombin, bovine chymotrypsin; purchased Sigma Chemical Co. (thrombin); Calbiochem (α2-macroglobulin); settings: excess inhibitor
Method: (§2) Measurements of protease activity at 25° C. or 37° C. were performed and analyzed as previously described (Hortin and Trimpe, J. Biol. Chem. 266:6866-6871, 1991) with a Cobas FARA analyzer (Roche Diagnostic Systems, Somerville, N.J.). […] Kinetic parameters were calculated from initial rates of reactions using Lineweaver-Burke plots. […] These reactions were performed in 100 mM tris(hydroxymethyl)-aminomethane pH 7.8 with 10 mm CaCl2. Substrate concentration were determined by absorbance at 342 nm, using an extinction coefficient of 8,260 mol^−1 and several concentrations were confirmed by absorbance measures at 405 or 410 nm after substrate hydrolysis, with extinction coefficient of 9,900 or 8,600 mol^−1, respectively, for the p-nitroaniline product (Lottenberg and Jackson, Biochim. Biophys. Acta 742:558-564, 1983). […] Trypsin concentration was estimated based on weight, assuming 100% activity. For studies of trypsin and thrombin, α2-macro-globulin was pretreated with a 200-fold molar excess of p-amidinophenylmethyl-sulfonylfluoride in order to inactivate any protease trapped within the inhibitor and left at 4° C. for 72 hours before use to allow complete decay of the sulfonylfluoride.

trypsin = target: T2, trypsin (Bos taurus, UniProt P00760); experiment: Inhibition of substrate cleavage by α2-macroglobulin, trypsin; type: biochemical, bovine; settings: excess inhibitor
T2 construct: purchased Worthington Biochemicals Co. (trypsin); Calbiochem (α2-macroglobulin)
T2 sequence (P00760 24-246): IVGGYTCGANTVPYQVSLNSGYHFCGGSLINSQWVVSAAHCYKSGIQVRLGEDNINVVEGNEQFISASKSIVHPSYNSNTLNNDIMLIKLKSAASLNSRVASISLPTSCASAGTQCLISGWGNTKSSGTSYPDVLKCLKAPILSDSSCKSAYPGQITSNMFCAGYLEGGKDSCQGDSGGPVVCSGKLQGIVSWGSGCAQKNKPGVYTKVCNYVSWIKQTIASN
Method: as §2

20S proteasomes = target: T3, 20S proteasomes (Methanosarcina thermophila, UniProt Q9P992); experiment: Substrate cleavage by 20S proteasomes; type: biochemical
T3 construct: purchased Calbiochem (La Jolla, Calif.); host or cells: Escherichia coli
T3 sequence (Q9P992 10-210): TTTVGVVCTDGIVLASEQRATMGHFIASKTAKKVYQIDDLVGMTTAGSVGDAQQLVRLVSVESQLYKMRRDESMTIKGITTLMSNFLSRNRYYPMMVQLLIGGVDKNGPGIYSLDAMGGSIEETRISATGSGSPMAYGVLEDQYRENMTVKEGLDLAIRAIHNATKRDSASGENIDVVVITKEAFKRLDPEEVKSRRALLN
T3 sequence (Q59565 1-247 partner): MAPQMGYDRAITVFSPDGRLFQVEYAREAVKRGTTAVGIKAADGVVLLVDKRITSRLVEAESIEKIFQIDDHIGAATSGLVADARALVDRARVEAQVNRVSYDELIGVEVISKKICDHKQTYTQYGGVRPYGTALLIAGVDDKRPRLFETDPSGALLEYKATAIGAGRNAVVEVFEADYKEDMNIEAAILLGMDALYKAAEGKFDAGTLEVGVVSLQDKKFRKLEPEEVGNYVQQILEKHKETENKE
Method: Enzyme assays. Assays of proteasome activity were performed at 37° C. unless otherwise indicated. […] Reactions were in a buffer consisting of 100 mM Tris(hydroxymethyl)aminomethane, pH 7.2 with 1 mM dithiothreitol.

chymotrypsin = chymotrypsin (Bos taurus, UniProt P00766); experiment: Inhibition of substrate cleavage by α2-macroglobulin, chymotrypsin
Method: Measurements of protease activity at 25° C. or 37° C. were performed and analyzed as previously described (Hortin and Trimpe, J. Biol. Chem. 266:6866-6871, 1991) with a Cobas FARA analyzer (Roche Diagnostic Systems, Somerville, N.J.). […] Kinetic parameters were calculated from initial rates of reactions using Lineweaver-Burke plots. […] These reactions were performed in 100 mM tris(hydroxymethyl)-aminomethane pH 7.8 with 10 mm CaCl2. Substrate concentration were determined by absorbance at 342 nm, using an extinction coefficient of 8,260 mol^−1 and several concentrations were confirmed by absorbance measures at 405 or 410 nm after substrate hydrolysis, with extinction coefficient of 9,900 or 8,600 mol^−1, respectively, for the p-nitroaniline product (Lottenberg and Jackson, Biochim. Biophys. Acta 742:558-564, 1983). Molar concentration of chymotrypsin was determined by active site titration with p-nitrophenyl guanidinobenzoate and thrombin concentrations by titration with highly purified hirudin. Trypsin concentration was estimated based on weight, assuming 100% activity. For studies of trypsin and thrombin, α2-macro-globulin was pretreated with a 200-fold molar excess of p-amidinophenylmethyl-sulfonylfluoride in order to inactivate any protease trapped within the inhibitor and left at 4° C. for 72 hours before use to allow complete decay of the sulfonylfluoride.

pancreatic amylase [3] = target: T4, pancreatic amylase (Homo sapiens, UniProt P04746); experiment: Amylase assay, Km determination, pancreatic amylase; type: biochemical; settings: 37° C.; HEPES buffer pH 7.15
T4 construct: purchased Scripps Laboratories (San Diego, Calif.)
T4 sequence (P04746 16-511): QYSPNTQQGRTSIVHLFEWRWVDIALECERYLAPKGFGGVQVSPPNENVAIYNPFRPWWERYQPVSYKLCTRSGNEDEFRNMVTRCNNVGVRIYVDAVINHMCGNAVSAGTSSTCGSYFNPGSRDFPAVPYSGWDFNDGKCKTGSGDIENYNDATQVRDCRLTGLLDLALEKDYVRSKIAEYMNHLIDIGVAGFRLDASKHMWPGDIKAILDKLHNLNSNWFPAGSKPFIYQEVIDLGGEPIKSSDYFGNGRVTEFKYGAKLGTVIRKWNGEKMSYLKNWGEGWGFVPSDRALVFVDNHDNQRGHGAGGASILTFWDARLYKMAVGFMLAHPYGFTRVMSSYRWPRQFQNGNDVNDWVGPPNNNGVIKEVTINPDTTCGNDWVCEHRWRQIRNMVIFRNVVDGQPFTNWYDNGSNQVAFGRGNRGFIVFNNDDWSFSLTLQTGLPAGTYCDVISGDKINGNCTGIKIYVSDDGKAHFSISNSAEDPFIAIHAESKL
Method: Amylase assays using oligosaccharide substrates were automated using a Cobas Fara analyzer (Roche, Basel, Switzerland). Unless indicated, assay temperature was 37° C., and absorbance changes were measured at 405 nm every minute over a 20 minute period. […] Amylases were diluted into assay buffer containing 1 mg/mL rabbit albumin. Final reaction volumes were 200 μL and consisted of 3 solutions, R1, R2, and R3. […] Depending upon the assay, R2 and R3 contained either amylase or substrate. R1 and R2 solutions were mixed for 10 seconds prior to the addition of R3. For immunoinhibition studies, antibodies were preincubated with amylase (R2) for 30 minutes at room temperature prior to the addition of substrate (R3). Unless indicated, final concentrations of MABs were 10 mg/L. Reaction blanks were determined by measuring the absorbance of substrate or enzyme alone at 405 nm. When EtG7pNP or mPEG-EtG7pNP were used as substrates, α-glucosidase was included in the blank measurement. Differences between the test samples and reagent blanks were determined. Activity of stock solutions of amylase was based on activity measured with a Hitachi 917 analyzer using a Roche kit (Cat. No 1876473) (Indianapolis, Ind.) which uses EtG7pNP as the substrate. For Km determinations, 4 or 5 different substrate concentrations (0.05 mmol/L to 6 mmol/L) with salivary (4-20 U/L) or pancreatic (4-40 U/L) amylase were used.

pancreatic amylase [4] = target: T4, pancreatic amylase; experiment: Immunoinhibition by MABs, pancreatic amylase, oligosaccharide substrates; type: biochemical; settings: pancreatic isoenzyme, 40 U/I (G5, G7 substrates) or 400 U/I (G3 substrates), 100% = no MAB
Method: (§1) Amylase assays using oligosaccharide substrates were automated using a Cobas Fara analyzer (Roche, Basel, Switzerland). Unless indicated, assay temperature was 37° C., and absorbance changes were measured at 405 nm every minute over a 20 minute period. Assay buffer was either 52.5 mmol/L 4-(2-hydroxyethyl)-1-piperazine-ethanesulfonic acid (HEPES) buffer, pH 7.15, 87 mmol/L sodium chloride, 12.6 mmol/L magnesium chloride, 0.075 mmol/L calcium chloride (HEPES buffer) or 50 mmol/L MES, pH 6.0, 350 mmol/L sodium chloride, 6 mmol/L calcium acetate, 900 mmol/L KSCN (MES buffer). Amylases were diluted into assay buffer containing 1 mg/mL rabbit albumin. Final reaction volumes were 200 μL and consisted of 3 solutions, R1, R2, and R3. […] Depending upon the assay, R2 and R3 contained either amylase or substrate. R1 and R2 solutions were mixed for 10 seconds prior to the addition of R3. For immunoinhibition studies, antibodies were preincubated with amylase (R2) for 30 minutes at room temperature prior to the addition of substrate (R3). Unless indicated, final concentrations of MABs were 10 mg/L. Reaction blanks were determined by measuring the absorbance of substrate or enzyme alone at 405 nm. When EtG7pNP or mPEG-EtG7pNP were used as substrates, α-glucosidase was included in the blank measurement. Differences between the test samples and reagent blanks were determined. Activity of stock solutions of amylase was based on activity measured with a Hitachi 917 analyzer using a Roche kit (Cat. No 1876473) (Indianapolis, Ind.) which uses EtG7pNP as the substrate. For Km determinations, 4 or 5 different substrate concentrations (0.05 mmol/L to 6 mmol/L) with salivary (4-20 U/L) or pancreatic (4-40 U/L) amylase were used.

salivary amylase [5] = target: T5, salivary amylase (Homo sapiens, UniProt P0DUB6); experiment: Immunoinhibition by MABs, salivary amylase, oligosaccharide substrates; type: biochemical; settings: salivary isoenzyme, 20 U/I (G5, G7 substrates) or 600 U/I (G3 substrates), 100% = no MAB
T5 construct: purchased Sigma (St. Louis, Mo.)
T5 sequence (P0DUB6 16-511): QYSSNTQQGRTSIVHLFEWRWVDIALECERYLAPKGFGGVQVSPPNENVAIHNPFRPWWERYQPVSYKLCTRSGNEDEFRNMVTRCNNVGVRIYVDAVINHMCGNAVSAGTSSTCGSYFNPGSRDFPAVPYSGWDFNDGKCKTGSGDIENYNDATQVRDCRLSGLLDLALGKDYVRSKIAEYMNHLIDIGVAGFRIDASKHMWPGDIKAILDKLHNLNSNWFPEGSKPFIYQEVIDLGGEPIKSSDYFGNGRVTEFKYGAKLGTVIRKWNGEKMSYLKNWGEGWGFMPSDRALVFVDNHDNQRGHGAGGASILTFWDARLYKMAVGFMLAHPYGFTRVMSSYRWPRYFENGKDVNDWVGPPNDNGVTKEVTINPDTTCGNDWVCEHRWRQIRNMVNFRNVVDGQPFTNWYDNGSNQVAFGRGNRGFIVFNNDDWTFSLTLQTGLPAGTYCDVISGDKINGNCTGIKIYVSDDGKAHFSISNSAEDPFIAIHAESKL
Method: as §1
When both MABs were used, MAB 88E8 concentrations were varied in the presence of 10 mg/L MAB 66C7. At an antibody concentration of 10 mg/L, MAB 88E8 inhibits 98% of salivary amylase activity in HEPES buffer and 34% of salivary amylase activity in MES buffer. MAB 66C7 increases salivary amylase activity in HEPES buffer and has no effect on salivary amylase activity in MES buffer. Using a mixture of MABs 88E8 and 66C7 at concentrations of […], >99% of salivary amylase activity is inhibited in HEPES buffer and 73% of salivary amylase activity is inhibited in MES buffer. When the pH of the MES buffer was increased from 6.0 to 6.5 and the concentration of KSCN was decreased from 900 mmol/L to 300 mmol/L, >97% of salivary amylase activity was inhibited by MAB 88E8.

salivary amylase [6] = target: T5, salivary amylase; experiment: Amylase assay, Km determination, salivary amylase; type: biochemical; settings: 37° C.; HEPES buffer pH 7.15
Method: as §1

[7] = system: C[C@H](NC(=O)CCC(=O)O)C(=O)N[C@@H](C)C(=O)N1CCC[C@H]1C(=O)N[C@@H](Cc1ccccc1)C(=O)Nc1ccc([N+](=O)[O-])cc1; experiment: purified protein, by the assay type; settings: other: 37° C., means of triplicates, pH 7.8

## N=C(N)NCCC[C@H](NC(=O)[C@@H]1CCCCN1C(=O)[C@H](N)Cc1ccccc1)C(=O)Nc1ccc([N+](=O)[O-])cc1 [D-Phe-Pip-Arg-pNA]
Thrombin [1]
  Km: 6.1 µM
  kcat: 65 S^−1
Thrombin [2]
  Inhibition of thrombin activity by excess α2-macroglobulin: 40-50%

## CC[C@@H](C)[C@@H](N)C(=O)N1CCC[C@H]1C(=O)N[C@@H](CCCNC(=N)N)C(=O)Nc1ccc([N+](=O)[O-])cc1 [D-Ile-Pro-Arg-pNA] (H-[dI]-Pro-Arg-pNA)
Thrombin [1]
  Km: 12 µM
  kcat: 105 S^−1
trypsin
  Inhibition of trypsin activity by excess α2-macroglobulin: 40-50%

## succinyl-Ala-Ala-Phe-p-nitroanilide [Suc-Ala-Ala-Phe-pNA]
20S proteasomes; each substrate at 1 mM, 37° C., mean ± SD
  Rate of substrate cleavage by 20s proteasomes: 0.0061 ± 0.0001 ΔA405/10 min
20S proteasomes; substrate 0.5-3 mM, 30-50° C.
  Rate of cleavage greater than Ala-Ala-Phe-pNA: 50-100%
chymotrypsin; chymotrypsin 2.5 μg/ml, 0.5 mM substrate, after incubation with excess α2-macroglobulin (250 μ/ml), means ± SD
  Rate Plus α2-M: 12.3 ± 0.1 µmol/L/min
chymotrypsin; chymotrypsin 2.5 μg/ml, 0.5 mM substrate, before incubation with α2-macroglobulin, means ± SD
  Rate Minus α2-M: 21.7 ± 0.2 µmol/L/min
chymotrypsin; chymotrypsin 2.5 μg/ml, 0.5 mM substrate, excess α2-macroglobulin
  Inhibition of substrate cleavage by α2-macroglobulin: 43%

## O=[N+]([O-])c1ccc(OC2OC(CO)C(OC3OC(CO)C(OC4OC(CO)C(OC5OC(CO)C(OC6OC(CO)C(O)C(O)C6O)C(O)C5O)C(O)C4O)C(O)C3O)C(O)C2O)cc1 [Substrate G5pNP, p-nitrophenyl-α-D-maltopentaoside]
Pancreatic amylase [3]
  Km: 280 µM
Pancreatic amylase [4]
  % activity with MAB 88E8 + 66C7: 95%
Pancreatic amylase [4]; MAB 10 mg/L
  % activity with MAB 66C7: 103%
  % activity with MAB 88E8: 101%
Salivary amylase [5]
  % activity with MAB 88E8 + 66C7: 2%
Salivary amylase [5]; MAB 10 mg/L
  % activity with MAB 66C7: 105%
  % activity with MAB 88E8: 6%
Salivary amylase [6]
  Km: 400 µM

## CC(=O)N[C@H](Cc1ccccc1)C(=O)N1CCCC[C@H]1C(=O)N[C@@H](CCCNC(=N)N)C(=O)Nc1ccc([N+](=O)[O-])cc1 [Ac-D-Phe-Pip-Arg-pNA]
Thrombin [1]
  Km: 23 µM
  kcat: 3.0 S^−1

## bovine chymotrypsin (Bos taurus)
[7]
  Km: 40 µM
  kcat: 120 s⁻¹
  kcat/Km: 3e+06 M⁻¹ s⁻¹

## C[C@H](NC(=O)CCC(=O)O)C(=O)N[C@@H](C)C(=O)N1CCC[C@H]1C(=O)N[C@@H](Cc1ccccc1)C(=O)Nc1ccc([N+](=O)[O-])cc1 [Suc-Ala-Ala-Pro-Phe-pNA, succinyl-Ala-Ala-Pro-Phe-pNA] (Suc-AAPF-pNA)
chymotrypsin; increasing α2-macroglobulin added to a fixed amount of chymotrypsin
  Maximal inhibition of chymotrypsin activity by excess α2-macroglobulin: about 60%
